Data from ChEMBL document CHEMBL1137957, “Probing pockets S2-S4' of the gamma-secretase active site with (hydroxyethyl)urea peptidomimetics” (Bioorg Med Chem Lett, 2004).

What follows are compounds tested against Gamma-secretase (assay: Inhibition of amyloid-beta production in Chinese hamster ovary (CHO) cells expressing human amyloid precursor protein (APP)).
Type: functional, cell-based

Row | IC50 [nM] | Structure (SMILES)
1 | 3100 | COC(=O)[C@H](Cc1ccccc1)NC(=O)[C@H](CC(C)C)NC(=O)N(C)C[C@@H](O)[C@H](Cc1ccccc1)NC(=O)OC(C)(C)C
2 | 540 | COC(=O)[C@H](CC(C)C)NC(=O)[C@@H](NC(=O)[C@H](CC(C)C)NC(=O)N(Cc1ccccc1)C[C@@H](O)[C@H](Cc1ccccc1)NC(=O)OC(C)(C)C)C(C)C
3 | 8000 | COC(=O)[C@H](CC(C)C)NC(=O)N(Cc1ccccc1)C[C@@H](O)[C@H](Cc1ccccc1)NC(=O)OC(C)(C)C
4 | 230 | COC(=O)[C@@H](NC(=O)[C@H](CC(C)C)NC(=O)N(Cc1ccccc1)C[C@@H](O)[C@H](Cc1ccccc1)NC(=O)[C@H](CC(C)C)NC(=O)OC(C)(C)C)C(C)C
5 | 650 | COC(=O)[C@H](CC(C)C)NC(=O)[C@H](CC(C)C)NC(=O)N(Cc1ccccc1)C[C@@H](O)[C@H](Cc1ccccc1)NC(=O)OC(C)(C)C
6 | 250 | COC(=O)[C@H](Cc1ccccc1)NC(=O)[C@@H](NC(=O)[C@H](CC(C)C)NC(=O)N(Cc1ccccc1)C[C@@H](O)[C@H](Cc1ccccc1)NC(=O)OC(C)(C)C)C(C)C
7 | 530 | COC(=O)[C@@H](NC(=O)[C@@H](NC(=O)[C@H](CC(C)C)NC(=O)N(Cc1ccccc1)C[C@@H](O)[C@H](Cc1ccccc1)NC(=O)OC(C)(C)C)C(C)C)C(C)C
8 | 270 | CC[C@H](C)[C@H](NC(=O)[C@@H](NC(=O)[C@H](CC(C)C)NC(=O)N(Cc1ccccc1)C[C@@H](O)[C@H](Cc1ccccc1)NC(=O)OC(C)(C)C)C(C)C)C(=O)OC
9 | 400 | COC(=O)[C@H](Cc1ccccc1)NC(=O)[C@H](CC(C)C)NC(=O)N(CC(C)C)C[C@@H](O)[C@H](Cc1ccccc1)NC(=O)OC(C)(C)C
10 | 670 | COC(=O)[C@H](C)NC(=O)[C@@H](NC(=O)[C@H](CC(C)C)NC(=O)N(Cc1ccccc1)C[C@@H](O)[C@H](Cc1ccccc1)NC(=O)OC(C)(C)C)C(C)C
11 | 22000 | COC(=O)[C@H](Cc1ccccc1)NC(=O)[C@H](CC(C)C)NC(=O)N(C[C@@H](O)[C@H](Cc1ccccc1)NC(=O)OC(C)(C)C)C(C)C
12 | 150 | COC(=O)[C@@H](NC(=O)[C@H](CC(C)C)NC(=O)N(Cc1ccccc1)C[C@@H](O)[C@H](Cc1ccccc1)NC(=O)[C@H](C)NC(=O)OC(C)(C)C)C(C)C
13 | 500 | COC(=O)[C@@H](NC(=O)[C@H](CC(C)C)NC(=O)N(Cc1ccccc1)C[C@@H](O)[C@H](Cc1ccccc1)NC(=O)[C@H](Cc1ccccc1)NC(=O)OC(C)(C)C)C(C)C
14 | 400 | COC(=O)[C@H](Cc1ccccc1)NC(=O)[C@@H](NC(=O)N(Cc1ccccc1)C[C@@H](O)[C@H](Cc1ccccc1)NC(=O)OC(C)(C)C)C(C)C
15 | 70 | COC(=O)[C@@H](NC(=O)[C@H](CC(C)C)NC(=O)N(Cc1ccccc1)C[C@@H](O)[C@H](Cc1ccccc1)NC(=O)[C@@H](NC(=O)OC(C)(C)C)C(C)C)C(C)C
16 | 18000 | COC(=O)[C@H](Cc1ccccc1)NC(=O)[C@H](Cc1ccccc1)NC(=O)N(Cc1ccccc1)C[C@@H](O)[C@H](Cc1ccccc1)NC(=O)OC(C)(C)C
17 | 140 | COC(=O)[C@H](Cc1ccccc1)NC(=O)[C@H](C)NC(=O)N(Cc1ccccc1)C[C@@H](O)[C@H](Cc1ccccc1)NC(=O)OC(C)(C)C
18 | 220 | COC(=O)[C@@H](NC(=O)[C@H](CC(C)C)NC(=O)N(Cc1ccccc1)C[C@@H](O)[C@H](Cc1ccccc1)NC(=O)OC(C)(C)C)C(C)C
19 | 20000 | COC(=O)[C@H](C)NC(=O)[C@H](CC(C)C)NC(=O)N(Cc1ccccc1)C[C@@H](O)[C@H](Cc1ccccc1)NC(=O)OC(C)(C)C
20 | 390 | COC(=O)[C@H](Cc1ccccc1)NC(=O)[C@H](CC(C)C)NC(=O)N(Cc1ccccc1)C[C@@H](O)[C@H](Cc1ccccc1)NC(=O)OC(C)(C)C (stereo in doubt; 2)
21 | 400 | COC(=O)[C@H](Cc1ccccc1)NC(=O)[C@H](CC(C)C)NC(=O)N(Cc1ccccc1)C[C@@H](O)[C@H](Cc1ccccc1)NC(=O)OC(C)(C)C (stereo in doubt; 9)
22 | 390 | COC(=O)[C@H](Cc1ccccc1)NC(=O)[C@H](CC(C)C)NC(=O)N(Cc1ccccc1)C[C@@H](O)[C@H](Cc1ccccc1)NC(=O)OC(C)(C)C (stereo in doubt; 12)
